pIC50: −log10 of the molar value. Converted amounts (≈) assume the structure as drawn.
What was measured:
C. albicans = assay: Minimum Inhibitory Concentration (MIC), CLSI M27-A2; type: cell-based; conditions: Candida albicans; about 50% growth reduction; approximately 48 h at 35°C
Method: Compounds were assessed for their ability to inhibit the growth of common strains of fungus, C. albicans using a standardized procedure (CLSI M27-A2). Stock solutions of the test compounds and standards were prepared in DMSO at 1,600 μg/mL (C. albicans). Eleven, serial, one-half dilutions of compounds were prepared in 96-well plates in RPMI+MOPS. The assay concentration ranges were […] (C. albicans). Cell suspensions of C. albicans were prepared and added to each well at concentrations of approximately 3.7×10^3 colony-forming-units per milliliter (cfu/mL). All testing was in duplicate. The inoculated plates were incubated for approximately 48 h at 35±1° C. At the completion of incubation the wells of each plate were evaluated visually for the presence of fungal growth. […] For QC purposes C. krusei isolate ATCC 6258 (4.0×10^3 efu/mL) was included in the VOR assay.

CYP2C19 = CYP2C19 (Homo sapiens (Human), UniProt P33261); assay: Inhibition of liver cytochrome P450 enzymes, pooled human liver microsomes; type: in vitro ADME
Chain of CYP2C19 (P33261 whole entry): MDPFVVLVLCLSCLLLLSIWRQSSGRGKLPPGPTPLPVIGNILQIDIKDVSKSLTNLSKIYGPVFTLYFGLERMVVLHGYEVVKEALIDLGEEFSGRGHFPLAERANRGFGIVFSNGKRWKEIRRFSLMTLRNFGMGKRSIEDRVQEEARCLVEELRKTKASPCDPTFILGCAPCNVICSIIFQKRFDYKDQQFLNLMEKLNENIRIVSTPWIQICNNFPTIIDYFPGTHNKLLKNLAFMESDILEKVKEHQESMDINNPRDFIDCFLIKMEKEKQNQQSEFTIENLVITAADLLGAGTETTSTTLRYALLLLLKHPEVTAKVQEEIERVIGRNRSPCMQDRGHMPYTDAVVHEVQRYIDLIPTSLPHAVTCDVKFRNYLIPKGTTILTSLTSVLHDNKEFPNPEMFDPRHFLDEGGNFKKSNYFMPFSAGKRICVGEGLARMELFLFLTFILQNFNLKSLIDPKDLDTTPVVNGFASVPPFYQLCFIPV
Method: (§1) Solutions of each test compound were separately prepared at concentrations of 20000, 6000, 2000, 600, 200, and 60 μM by serial dilution with DMSO:MeCN (50:50 v/v). […] The mixed inhibitor solutions were then diluted 20-fold with DMSO:MeCN:deionized water (5:5:180 v/v/v) to concentrations of 300, 100, 30, 10, 3, 1, 0.3, and 0.1 μM. The percent of organic solvent attributable to the test compound or inhibitor mixture in the final reaction mixture was 2% v/v. Pooled human liver microsome suspension (20 mg/mL) was diluted with phosphate buffer to obtain a 5 mg/mL suspension. A solution of NADPH was prepared in phosphate buffer at a concentration of 5 mM. Separate stock solutions of each substrate were prepared in DMSO:MeCN (50:50 v/v), mixed, and diluted in phosphate buffer to obtain a single solution containing each substrate at five times its experimentally determined Km concentration. The percent of organic solvent attributable to substrate mixture in the final reaction mixture was 1% v/v. Substrate solution and microsome suspension were combined in a 1:1 volume ratio, mixed, and distributed to reaction wells of a PCR plate. Individual test compound or combined inhibitor solutions at each concentration were added to the wells and mixed by repetitive aspirate-dispense cycles. […] Reaction mixtures were allowed to equilibrate at 37° C. for approximately two minutes before adding NADPH solution to initiate reaction, followed by pipette mixing of reaction mixture. Ten minutes after addition of NADPH, the reaction mixtures were quenched with cold acetonitrile. […] A portion of the supernatant was analyzed by gradient reverse-phase HPLC with detection by electrospray ionization triple quadrupole mass spectrometry in the positive ion mode. Data was fitted to sigmoid dose-response curves and the inhibitory potency of each test compound was determined as its IC50 value.

CYP2C9 = CYP2C9 (Homo sapiens (Human), UniProt P11712); assay: as above; type: in vitro ADME
Chain of CYP2C9 (P11712 whole entry): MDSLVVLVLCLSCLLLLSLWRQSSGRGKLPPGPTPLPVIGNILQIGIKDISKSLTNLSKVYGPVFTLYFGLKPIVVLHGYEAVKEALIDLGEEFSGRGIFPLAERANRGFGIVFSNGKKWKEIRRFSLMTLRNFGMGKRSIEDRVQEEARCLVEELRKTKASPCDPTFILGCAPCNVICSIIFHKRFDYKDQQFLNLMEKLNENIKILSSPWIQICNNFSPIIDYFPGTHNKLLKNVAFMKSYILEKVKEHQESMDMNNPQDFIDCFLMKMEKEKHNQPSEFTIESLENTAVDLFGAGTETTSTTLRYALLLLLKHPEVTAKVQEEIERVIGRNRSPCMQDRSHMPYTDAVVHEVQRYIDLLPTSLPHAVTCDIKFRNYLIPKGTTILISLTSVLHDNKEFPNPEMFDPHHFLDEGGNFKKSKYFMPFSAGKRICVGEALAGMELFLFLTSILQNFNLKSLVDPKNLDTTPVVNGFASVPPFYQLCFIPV
Method: as §1

CYP3A4 = CYP3A4 (Homo sapiens (Human), UniProt P08684); assay: as above; type: in vitro ADME
Chain of CYP3A4 (P08684 whole entry): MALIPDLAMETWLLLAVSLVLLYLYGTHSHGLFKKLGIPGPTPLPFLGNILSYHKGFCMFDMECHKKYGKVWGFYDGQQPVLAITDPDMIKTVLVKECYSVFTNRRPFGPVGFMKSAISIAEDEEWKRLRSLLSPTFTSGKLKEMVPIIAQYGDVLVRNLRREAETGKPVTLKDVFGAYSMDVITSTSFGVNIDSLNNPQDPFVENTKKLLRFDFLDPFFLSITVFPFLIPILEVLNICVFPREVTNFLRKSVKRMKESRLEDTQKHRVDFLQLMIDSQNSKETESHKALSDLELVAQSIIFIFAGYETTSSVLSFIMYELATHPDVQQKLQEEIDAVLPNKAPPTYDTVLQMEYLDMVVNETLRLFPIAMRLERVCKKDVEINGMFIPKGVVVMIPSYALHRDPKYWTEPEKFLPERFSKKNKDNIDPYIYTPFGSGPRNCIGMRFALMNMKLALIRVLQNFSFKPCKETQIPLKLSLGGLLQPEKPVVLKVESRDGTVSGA
Method: as §1

| MIC (C. albicans) | pIC50 (CYP2C19) | pIC50 (CYP2C9) | pIC50 (CYP3A4) | Compound |
| --- | --- | --- | --- | --- |
| 2 ng/mL (≈ 4.48 nM) | – | – | – | OC(Cn1cncn1)(c1ccc(F)cc1F)C(F)(F)c1ccc(-c2ccc(F)cc2)cn1 (stereo not drawn) [Example 16, 2-(2,4-Difluorophenyl)-1,1-difluoro-1-(5-(4-fluorophenyl)pyridin-2-yl)-3-(1H-1,2,4-triazol-1-yl)propan-2-ol] |
| ≤ 1 ng/mL | 4.96 | 5.51 | 5.42 | OC(Cn1cncn1)(c1ccc(F)cc1F)C(F)(F)c1ccc(-c2ccc(OC(F)(F)F)cc2)cn1 [Example 18, 2-(2,4-Difluorophenyl)-1,1-difluoro-3-(1H-1,2,4-triazol-1-yl)-L-(5-(4-(trifluoromethoxy)phenyl)pyridin-2-yl)propan-2-ol] |
| ≤ 1 ng/mL | – | – | – | OC(Cn1cncn1)(c1ccc(F)cc1F)C(F)(F)c1ccc(-c2ccc(OCC(F)(F)F)cc2)cn1 (stereo not drawn) [Example 17, 2-(2,4-difluorophenyl)-1,1-difluoro-3-(1H-1,2,4-triazol-1-yl)-1-(5-(4-(2,2,2-trifluoroethoxy)phenyl)pyridin-2-yl)propan-2-ol] |
